One assay deals with B16 melanoma. Briefly: In vitro cytotoxic activity (MTT) assay, B16 melanoma. The conditions noted are these: Mus musculus; Murine B16 melanoma cells, exposed for 96 hours. The class given is cell-based. As for the experimental part: (§1) Compounds 1-10 were screened for their in vitro cytotoxic activity utilizing a 3-(4,5-dimethyl-thiazol-2-yl)-2,5-diphenyltetrazolium bromide (MTT) assay against selected cancer murine and human cancer cell lines (T. Mosmann, J. Immunol. Meth., 1983, 65, 55-63). The cells were cultured at 37° C. in RMPI1640 medium supplemented with 10% fetal bovine serum, 50 IU/mL penicillin, and 50 μg/mL streptomycin in a 5% CO2 incubator. All cells were sub-cultured 3 times/week by trypsinisation. Viable cells were seeded and allowed to adhere for 12 h before a test drug was added in 96-well plates at an initial density of 1.0×10^5 cells/mL. Tumour cell lines were separately exposed to various concentrations of the tested compounds followed by incubation at a temperature of 37° C. during 4 days inside a medium of fresh RMPI 1640. Cells were subsequently incubated at 37° C. using MTT at 0.5 mg/mL during 4 h. After removal of supernatant, formazan crystals were dissolved in isopropanol and the optical density was measured at 570 nm. CX-4945 has been used as a positive control.

The test system of a further assay is Colon C38 adenocarcinoma. Briefly: In vitro cytotoxic activity (MTT) assay, Colon C38 adenocarcinoma. The assay is classed as cell-based. The conditions noted are these: Mus musculus; Murine Colon C38 adenocarcinoma cells, exposed for 96 hours. As for the experimental part: as §1
For another assay, the system named is MCF7 (breast). Put plainly: In vitro cytotoxic activity (MTT) assay, MCF7. The class given is cell-based. The conditions noted are these: Human MCF7 (breast) cells, exposed for 96 hours. As for the experimental part: as §1
The test system of another assay is Leukemia P388. Put plainly: In vitro cytotoxic activity (MTT) assay, Leukemia P388. The class given is cell-based. The conditions noted are these: Mus musculus; Murine Leukemia P388 cells, exposed for 96 hours. As for the experimental part:
as §1

The next assay deals with T1, CK2 (Homo sapiens, UniProt P68400).
T1 construct: purchased Upstate Biotechnology, Lake Placid, NY, USA
T1 sequence (P68400 whole entry): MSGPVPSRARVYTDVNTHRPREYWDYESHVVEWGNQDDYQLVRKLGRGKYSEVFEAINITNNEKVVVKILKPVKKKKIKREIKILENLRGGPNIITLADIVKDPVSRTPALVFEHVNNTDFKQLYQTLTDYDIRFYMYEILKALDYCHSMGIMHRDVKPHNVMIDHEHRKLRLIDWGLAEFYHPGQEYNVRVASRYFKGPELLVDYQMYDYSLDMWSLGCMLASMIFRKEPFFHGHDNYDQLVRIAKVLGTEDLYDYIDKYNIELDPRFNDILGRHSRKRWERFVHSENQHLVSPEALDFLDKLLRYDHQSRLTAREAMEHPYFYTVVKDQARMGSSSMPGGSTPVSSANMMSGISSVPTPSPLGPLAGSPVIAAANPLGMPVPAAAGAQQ
Put plainly: In vitro CK2 inhibitory assay (CK2 assay kit). The assay is classed as biochemical. To be noted: CK2 assay kit (Upstate Biotechnology). As for the experimental part: CK2 activity was assessed by using a CK2 assay kit (Upstate Biotechnology, Lake Placid, NY, USA) according to the manufacturer's instructions [T. Tiganis, C. M. House, B. E. Kemp, Arch. Biochem. Biophys. 1996,325, 289-294].

The next assay has as its system HCT116 (colon). Put plainly: In vitro cytotoxic activity (MTT) assay, HCT116. The assay is classed as cell-based. To be noted: HCT-116; Human HCT116 (colon) cells, exposed for 96 hours. As for the experimental part: as §1
For another assay, the system named is H1299 (lung). Put plainly: In vitro cytotoxic activity (MTT) assay, H1299. The class given is cell-based. To be noted: NCI-H1299; Human H1299 (lung) cells, exposed for 96 hours. As for the experimental part:
as §1

The test system of the next assay is HL60 (leukemia). Put plainly: In vitro cytotoxic activity (MTT) assay, HL60. The class given is cell-based. The conditions noted are these: HL-60; Human HL60 (leukemia) cells, exposed for 96 hours. As for the experimental part: as §1
A further assay concerns PC3 (prostate). Put plainly: In vitro cytotoxic activity (MTT) assay, PC3. The assay is classed as cell-based. The conditions noted are these: Prostate cell; Human PC3 (prostate) cells, exposed for 96 hours. As for the experimental part:
as §1

For a further assay, the system named is MDA-MB-231 (breast). Put plainly: In vitro cytotoxic activity (MTT) assay, MDA-MB-231. The class given is cell-based. The conditions noted are these: Human MDA-MB-231 (breast) cells, exposed for 96 hours. As for the experimental part:
as §1

The test system of a further assay is MIAPaCa-2 (pancreas). Briefly: In vitro cytotoxic activity (MTT) assay, MIAPaCa-2. The conditions noted are these: MIA PaCa-2; Human MIAPaCa-2 (pancreas) cells, exposed for 96 hours. The assay is classed as cell-based. As for the experimental part:
as §1

Another assay has as its system A375 (melanoma). Briefly: In vitro cytotoxic activity (MTT) assay, A375. The assay is classed as cell-based. The conditions noted are these: A-375; Human A375 (melanoma) cells, exposed for 96 hours. As for the experimental part: as §1

Experimental findings from patent publication US11802129B1, “Pyrido[3,4-b]indol-1-one compounds as anticancer agents” (KING FAISAL UNIVERSITY, priority 2023, dated 2023) are described below.

Usually IC50 stands for the midpoint of a concentration-inhibition curve. Read a low IC50 as higher potency.

`O=C(O)c1ccc2[nH]c3c(=O)[nH]cc(Nc4cccc(Cl)c4)c3c2c1` [Example 3, 4-((3-chlorophenyl)amino)-1-oxo-2,9-dihydro-1H-pyrido[3,4-b]indole-6-carboxylic acid]: the concentration for half-maximal inhibition (IC50) in the assay with B16 melanoma came out at 6.8 µM; with Colon C38 adenocarcinoma, 4.4 µM; in the assay on MCF7 (breast), 7.5 µM; with Leukemia P388 it was 5.5 µM; against CK2, 0.005 µM; in the assay with HCT116 (colon) it was 3.3 µM. The half-maximal inhibitory concentration (IC50) in the assay with H1299 (lung) stood at 2.1 µM; in the assay on HL60 (leukemia), 6.3 µM; with PC3 (prostate) it was 2.6 µM; with MDA-MB-231 (breast) it was 6.6 µM; in the assay with MIAPaCa-2 (pancreas), 5.7 µM; with A375 (melanoma), 4.4 µM.
